{"source": "PubChem BioAssay AID1963980", "about": "(Molecular Pharmacology Branch, DTP, NCI, 2024);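 further: spheroids exposed to agents for seven days before readout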", "tested_on": "475296-252-R-J1-PDC spheroid viability", "experiment": "Anticancer human tumor 475296-252-R-J1-PDC patient-derived rectal carcinoma cell line growth inhibition [PI3K]", "conditions": "spheroids with HUVEC and MSC; for IC50: curve of first compound; for viability, T/C: stronger effect = lower value", "summary_of_the_method": "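We assembled tumor spheroids that included a stromal compartment of HUVEC and MSCs, then exposed them to targeted agents alone and together with PI3K pathway inhibitors. Concentration series descended by half-log from clinically achievable Cmax levels. Viability served as the endpoint.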", "key": {"[1]": {"conditions": "second compound 0.0316 µM, first compound 0.0316 µM"}, "[2]": {"conditions": "second compound 0.0316 µM, first compound 0.1 µM"}, "[3]": {"conditions": "second compound 0.0316 µM, first compound 0.316 µM"}, "[4]": {"conditions": "second compound 0.0316 µM, first compound 1 µM"}, "[5]": {"conditions": "second compound 0.0316 µM, first compound 3.16 µM"}, "[6]": {"conditions": "second compound 0.0316 µM, first compound 10 µM"}, "[7]": {"conditions": "second compound 0.1 µM, first compound 0.0316 µM"}, "[8]": {"conditions": "second compound 0.1 µM, first compound 0.1 µM"}, "[9]": {"conditions": "second compound 0.1 µM, first compound 0.316 µM"}, "[10]": {"conditions": "second compound 0.1 µM, first compound 1 µM"}, "[11]": {"conditions": "second compound 0.1 µM, first compound 3.16 µM"}, "[12]": {"conditions": "second compound 0.1 µM, first compound 10 µM"}, "[13]": {"conditions": "second compound 0.316 µM, first compound 0.0316 µM"}, "[14]": {"conditions": "second compound 0.316 µM, first compound 0.1 µM"}, "[15]": {"conditions": "second compound 0.316 µM, first compound 0.316 µM"}, "[16]": {"conditions": "second compound 0.316 µM, first compound 1 µM"}, "[17]": {"conditions": "second compound 0.316 µM, first compound 3.16 µM"}, "[18]": {"conditions": "second compound 0.316 µM, first compound 10 µM"}, "[19]": {"conditions": "second compound 1 µM, first compound 0.0316 µM"}, "[20]": {"conditions": "second compound 1 µM, first compound 0.1 µM"}, "[21]": {"conditions": "second compound 1 µM, first compound 0.316 µM"}, "[22]": {"conditions": "second compound 1 µM, first compound 1 µM"}, "[23]": {"conditions": "second compound 1 µM, first compound 3.16 µM"}, "[24]": {"conditions": "second compound 1 µM, first compound 10 µM"}, "[25]": {"conditions": "second compound 3.16 µM, first compound 0.0316 µM"}, "[26]": {"conditions": "second compound 3.16 µM, first compound 0.1 µM"}, "[27]": {"conditions": "second compound 3.16 µM, first compound 0.316 µM"}, "[28]": {"conditions": "second compound 3.16 µM, first compound 1 µM"}, "[29]": {"conditions": "second compound 3.16 µM, first compound 3.16 µM"}, "[30]": {"conditions": "second compound 3.16 µM, first compound 10 µM"}, "[31]": {"conditions": "second compound 10 µM, first compound 0.0316 µM"}, "[32]": {"conditions": "second compound 10 µM, first compound 0.1 µM"}, "[33]": {"conditions": "second compound 10 µM, first compound 0.316 µM"}, "[34]": {"conditions": "second compound 10 µM, first compound 1 µM"}, "[35]": {"conditions": "second compound 10 µM, first compound 3.16 µM"}, "[36]": {"conditions": "second compound 10 µM, first compound 10 µM"}}, "data": [{"smiles": "CC1(C)CCC(CN2CCN(c3ccc(C(=O)NS(=O)(=O)c4ccc(NCC5CCOCC5)c([N+](=O)[O-])c4)c(Oc4cnc5[nH]ccc5c4)c3)CC2)=C(c2ccc(Cl)cc2)C1", "note": "+ CC(Nc1ncnc2nc[nH]c12)c1cc2cccc(Cl)c2c(=O)n1-c1ccccc1", "values": [{"measurement": "IC50", "setting": "second compound 0.0316 µM", "value": "> 10", "unit": "µM"}, {"measurement": "IC50", "setting": "second compound 0.1 µM", "value": "> 10", "unit": "µM"}, {"measurement": "IC50", "setting": "second compound 0.316 µM", "value": "> 10", "unit": "µM"}, {"measurement": "IC50", "setting": "second compound 1 µM", "value": "> 10", "unit": "µM"}, {"measurement": "IC50", "setting": "second compound 3.16 µM", "value": "> 10", "unit": "µM"}, {"measurement": "IC50", "setting": "second compound 10 µM", "value": "> 10", "unit": "µM"}, {"measurement": "viability, T/C", "setting": "[1]", "value": 102, "unit": "%"}, {"measurement": "viability, T/C", "setting": "[2]", "value": 99.1, "unit": "%"}, {"measurement": "viability, T/C", "setting": "[3]", "value": 91.2, "unit": "%"}, {"measurement": "viability, T/C", "setting": "[4]", "value": 104, "unit": "%"}, {"measurement": "viability, T/C", "setting": "[5]", "value": 107, "unit": "%"}, {"measurement": "viability, T/C", "setting": "[6]", "value": 84.2, "unit": "%"}, {"measurement": "viability, T/C", "setting": "[7]", "value": 107, "unit": "%"}, {"measurement": "viability, T/C", "setting": "[8]", "value": 93.8, "unit": "%"}, {"measurement": "viability, T/C", "setting": "[9]", "value": 98.8, "unit": "%"}, {"measurement": "viability, T/C", "setting": "[10]", "value": 99.7, "unit": "%"}, {"measurement": "viability, T/C", "setting": "[11]", "value": 106, "unit": "%"}, {"measurement": "viability, T/C", "setting": "[12]", "value": 99, "unit": "%"}, {"measurement": "viability, T/C", "setting": "[13]", "value": 120, "unit": "%"}, {"measurement": "viability, T/C", "setting": "[14]", "value": 95.4, "unit": "%"}, {"measurement": "viability, T/C", "setting": "[15]", "value": 97.9, "unit": "%"}, {"measurement": "viability, T/C", "setting": "[16]", "value": 95, "unit": "%"}, {"measurement": "viability, T/C", "setting": "[17]", "value": 86.4, "unit": "%"}, {"measurement": "viability, T/C", "setting": "[18]", "value": 94.3, "unit": "%"}, {"measurement": "viability, T/C", "setting": "[19]", "value": 86.6, "unit": "%"}, {"measurement": "viability, T/C", "setting": "[20]", "value": 104, "unit": "%"}, {"measurement": "viability, T/C", "setting": "[21]", "value": 98.9, "unit": "%"}, {"measurement": "viability, T/C", "setting": "[22]", "value": 101, "unit": "%"}, {"measurement": "viability, T/C", "setting": "[23]", "value": 91.8, "unit": "%"}, {"measurement": "viability, T/C", "setting": "[24]", "value": 91.7, "unit": "%"}, {"measurement": "viability, T/C", "setting": "[25]", "value": 93.2, "unit": "%"}, {"measurement": "viability, T/C", "setting": "[26]", "value": 99.4, "unit": "%"}, {"measurement": "viability, T/C", "setting": "[27]", "value": 95.1, "unit": "%"}, {"measurement": "viability, T/C", "setting": "[28]", "value": 87.6, "unit": "%"}, {"measurement": "viability, T/C", "setting": "[29]", "value": 96.9, "unit": "%"}, {"measurement": "viability, T/C", "setting": "[30]", "value": 95.6, "unit": "%"}, {"measurement": "viability, T/C", "setting": "[31]", "value": 78.5, "unit": "%"}, {"measurement": "viability, T/C", "setting": "[32]", "value": 91.7, "unit": "%"}, {"measurement": "viability, T/C", "setting": "[33]", "value": 92, "unit": "%"}, {"measurement": "viability, T/C", "setting": "[34]", "value": 88.9, "unit": "%"}, {"measurement": "viability, T/C", "setting": "[35]", "value": 90.6, "unit": "%"}, {"measurement": "viability, T/C", "setting": "[36]", "value": 81.3, "unit": "%"}]}, {"smiles": "CCCS(=O)(=O)Nc1ccc(F)c(C(=O)c2c[nH]c3ncc(-c4ccc(Cl)cc4)cc23)c1F", "note": "+ CC(Nc1ncnc2nc[nH]c12)c1cc2cccc(Cl)c2c(=O)n1-c1ccccc1", "values": [{"measurement": "IC50", "setting": "second compound 0.0316 µM", "value": "> 10", "unit": "µM"}, {"measurement": "IC50", "setting": "second compound 0.1 µM", "value": "> 10", "unit": "µM"}, {"measurement": "IC50", "setting": "second compound 0.316 µM", "value": "> 10", "unit": "µM"}, {"measurement": "IC50", "setting": "second compound 1 µM", "value": "> 10", "unit": "µM"}, {"measurement": "IC50", "setting": "second compound 3.16 µM", "value": "> 10", "unit": "µM"}, {"measurement": "IC50", "setting": "second compound 10 µM", "value": "> 10", "unit": "µM"}, {"measurement": "viability, T/C", "setting": "[1]", "value": 96.5, "unit": "%"}, {"measurement": "viability, T/C", "setting": "[2]", "value": 112, "unit": "%"}, {"measurement": "viability, T/C", "setting": "[3]", "value": 103, "unit": "%"}, {"measurement": "viability, T/C", "setting": "[4]", "value": 94.8, "unit": "%"}, {"measurement": "viability, T/C", "setting": "[5]", "value": 85.1, "unit": "%"}, {"measurement": "viability, T/C", "setting": "[6]", "value": 110, "unit": "%"}, {"measurement": "viability, T/C", "setting": "[7]", "value": 110, "unit": "%"}, {"measurement": "viability, T/C", "setting": "[8]", "value": 110, "unit": "%"}, {"measurement": "viability, T/C", "setting": "[9]", "value": 97.3, "unit": "%"}, {"measurement": "viability, T/C", "setting": "[10]", "value": 90.6, "unit": "%"}, {"measurement": "viability, T/C", "setting": "[11]", "value": 107, "unit": "%"}, {"measurement": "viability, T/C", "setting": "[12]", "value": 100, "unit": "%"}, {"measurement": "viability, T/C", "setting": "[13]", "value": 94.6, "unit": "%"}, {"measurement": "viability, T/C", "setting": "[14]", "value": 88.6, "unit": "%"}, {"measurement": "viability, T/C", "setting": "[15]", "value": 99.4, "unit": "%"}, {"measurement": "viability, T/C", "setting": "[16]", "value": 101, "unit": "%"}, {"measurement": "viability, T/C", "setting": "[17]", "value": 90.9, "unit": "%"}, {"measurement": "viability, T/C", "setting": "[18]", "value": 105, "unit": "%"}, {"measurement": "viability, T/C", "setting": "[19]", "value": 89.5, "unit": "%"}, {"measurement": "viability, T/C", "setting": "[20]", "value": 104, "unit": "%"}, {"measurement": "viability, T/C", "setting": "[21]", "value": 96.2, "unit": "%"}, {"measurement": "viability, T/C", "setting": "[22]", "value": 90.6, "unit": "%"}, {"measurement": "viability, T/C", "setting": "[23]", "value": 96.7, "unit": "%"}, {"measurement": "viability, T/C", "setting": "[24]", "value": 96.6, "unit": "%"}, {"measurement": "viability, T/C", "setting": "[25]", "value": 97, "unit": "%"}, {"measurement": "viability, T/C", "setting": "[26]", "value": 104, "unit": "%"}, {"measurement": "viability, T/C", "setting": "[27]", "value": 90, "unit": "%"}, {"measurement": "viability, T/C", "setting": "[28]", "value": 100, "unit": "%"}, {"measurement": "viability, T/C", "setting": "[29]", "value": 87.6, "unit": "%"}, {"measurement": "viability, T/C", "setting": "[30]", "value": 87.4, "unit": "%"}, {"measurement": "viability, T/C", "setting": "[31]", "value": 101, "unit": "%"}, {"measurement": "viability, T/C", "setting": "[32]", "value": 80.1, "unit": "%"}, {"measurement": "viability, T/C", "setting": "[33]", "value": 79.8, "unit": "%"}, {"measurement": "viability, T/C", "setting": "[34]", "value": 97, "unit": "%"}, {"measurement": "viability, T/C", "setting": "[35]", "value": 90.3, "unit": "%"}, {"measurement": "viability, T/C", "setting": "[36]", "value": 92.3, "unit": "%"}]}]}
